# Assay results as given in patent US11833116B2 (TCI CO., LTD., priority 2020, dated 2023).
# Columns and labels:
# MRPS5 gene = assay: Antiaging-related gene expression in PBMC cells (qRT-PCR): MRPS5; type: cell-based, human; conditions: 0.25 vol %, 24 hours, control group = 1.00
# Text: (§1) Herein, the tested antiaging-related genes are antiaging genes including CCT5 gene (Gene ID: 22948), CCT6A gene (Gene ID: 908), CCT7 gene (Gene ID: 10574), CCT8 gene (Gene ID: 10694), PARP2 gene (Gene ID: 10038), Parkin gene (Gene ID: 5071), Atg1 gene (Gene ID: 8408), Arg8 gene (Gene ID: 11345), FOX) gene (Gene ID: 2308), SIRT1 gene (Gene ID: 23411), […] gene (Gene ID: 55191), and MRPS3 gene (Gene ID: 64969). A medium used was an X-VIVOTM 15 serum-free hematopoietic cell medium (manufacturer: Lonza; product No.: 04-[…]) supplemented with 10 vol % of fetal bovine serum (FBS; brand: Gibco) and 1 vol % of penicillin/streptomycin (brand: Gibco), hereinafter referred to as a cell medium. […] Then, by using an ABI StepOnePlusTM Real-Time PCR system (Thermo Fisher Scientific Company, USA), KAPA SYBR FAST (purchased from Sigma Company, USA, No. 38220000000) and primers of Table 1 (SEQ ID NO: 1 to SEQ ID NO: 24), a quantitative real-time reverse transcription polymerase chain reaction was performed on the cDNA of each group to observe the expression levels of antiaging-related genes in PBMC cells. […] Herein, the quantitative real-time reverse transcription polymerase chain reaction of the cDNA can indirectly quantify an mRNA expression level of a gene, and then infer the expression level of protein encoded by the gene. […]
# PARP2 gene = assay: Antiaging-related gene expression in PBMC cells (qRT-PCR): PARP2; type: cell-based, human; conditions: 0.25 vol %, 24 hours, control group = 1.00
# Text: as §1
# [1] = test system: mouse brain neuroblastoma cells (Neuro2a); assay: Mitochondrial activity (JC-1 mitochondrial membrane potential, flow cytometry); type: cell-based; conditions: 0.25 vol %, 24 hours, control group = 100%
# Text: A medium used was a DMEM medium (Dulbecco's Modified Eagle Medium; brand: Gibco) supplemented with 10 vol % of fetal bovine serum (FBS; brand: Gibco) and 1 vol % of penicillin/streptomycin (brand: Gibco), hereinafter referred to as a cell medium. A mitochondrial activity test method used was to use a mitochondrial membrane potential detection kit (BD™ MitoScreen (JC-1) kit, model 551302) to measure the mitochondrial membrane potential and perform mitochondrial activity analysis. The mitochondrial membrane potential detection kit included a JC-1 stain (freeze-dried) and a 10×assay buffer. Before use, the 10×assay buffer was diluted 10 times with 1×PBS to form a 1×assay buffer. 130 μL of DMSO was added to the JC-1 stain (freeze-dried) to form a JC-1 stock solution. Then, the JC-1 stock solution was diluted with the 1×assay buffer to form a JC-1 working solution (JC-1 mitochondrial specific stain). The dilution ratio of the JC-1 stock solution to the 1×assay buffer was 1:100.
# First, 1×10^5 mouse neuroblastoma cells (ATCC CCL-131; hereinafter referred to as Neuro2a cells) were added into a six-well cell culture plate containing 2 mL of the above cell medium per well, and cultured at 37° C. for 24 hours. […]
# [2] = test system: mouse brain neuroblastoma cells (Neuro2a); assay: Inhibition of ROS generation (hydrogen peroxide treatment), DCFH-DA flow cytometry; type: cell-based
# Description: A medium used was a DMEM medium (Dulbecco's Modified Eagle Medium; brand: Gibco) supplemented with 10 vol % of fetal bovine serum (FBS; brand: Gibco) and 1 vol % of penicillin/streptomycin (brand: Gibco), hereinafter referred to as a cell medium. A DCFH-DA solution used was a reaction solution prepared by dissolving 2,7-dichloro-dihydro-fluorescein diacetate (DCFH-DA, product code SI-D6883, purchased from Sigma) in dimethyl sulfoxide (DMSO, purchased from Sigma, product code SI-D6883-50MG). […]
# Flow cytometry (manufacturer: Beckman; Catalog No. 660519) was used to detect a fluorescence signal of DCFH-DA in the cell solutions to be assayed in each group. The excitation wavelength of fluorescence detection used was 450 nm to 490 nm, and the emission wavelength was 510 nm to 550 nm. Since DCFH-DA will first be hydrolyzed to DCFH (dichloro-dihydro-fluorescein) after entering the Neuro2a cells, and then oxidized by reactive oxygen species (ROS) into DCF (dichloro-fluorescein) that emits green fluorescence, the fluorescence intensity of the Neuro2a cells treated with the DCFH-DA can reflect the content of reactive oxygen species (ROS) in the Neuro2a cells, and from this, the ratio of the number of cells with highly expressed reactive oxygen species (ROS) in the Neuro2a cells to the number of original cells can be known.
# CCT5 gene = assay: Antiaging-related gene expression in PBMC cells (qRT-PCR): CCT5; type: cell-based, human; conditions: 0.25 vol %, 24 hours, control group = 1.00
# Text: as §1
# Atg8 gene = assay: Antiaging-related gene expression in PBMC cells (qRT-PCR): Atg8; type: cell-based, human; conditions: 0.25 vol %, 24 hours, control group = 1.00
# Text: as §1
# FOXO gene = assay: Antiaging-related gene expression in PBMC cells (qRT-PCR): FOXO; type: cell-based, human; conditions: 0.25 vol %, 24 hours, control group = 1.00
# Text: as §1
# CCT8 gene = assay: Antiaging-related gene expression in PBMC cells (qRT-PCR): CCT8; type: cell-based, human; conditions: 0.25 vol %, 24 hours, control group = 1.00
# Text: as §1
# NADSYN gene = assay: Antiaging-related gene expression in PBMC cells (qRT-PCR): NADSYN; type: cell-based, human; conditions: 0.25 vol %, 24 hours, control group = 1.00
# Text: as §1
# Atg1 gene = assay: Antiaging-related gene expression in PBMC cells (qRT-PCR): Atg1; type: cell-based, human; conditions: 0.25 vol %, 24 hours, control group = 1.00
# Text: as §1
# CCT6A gene = assay: Antiaging-related gene expression in PBMC cells (qRT-PCR): CCT6A; type: cell-based, human; conditions: 0.25 vol %, 24 hours, control group = 1.00
# Text: as §1
# CCT7 gene = assay: Antiaging-related gene expression in PBMC cells (qRT-PCR): CCT7; type: cell-based, human; conditions: 0.25 vol %, 24 hours, control group = 1.00
# Text: as §1
# Parkin gene = assay: Antiaging-related gene expression in PBMC cells (qRT-PCR): Parkin; type: cell-based, human; conditions: 0.25 vol %, 24 hours, control group = 1.00
# Text: Herein, the tested antiaging-related genes are antiaging genes including CCT5 gene (Gene ID: 22948), CCT6A gene (Gene ID: 908), CCT7 gene (Gene ID: 10574), CCT8 gene (Gene ID: 10694), PARP2 gene (Gene ID: 10038), Parkin gene (Gene ID: 5071), Atg1 gene (Gene ID: 8408), Arg8 gene (Gene ID: 11345), FOX) gene (Gene ID: 2308), SIRT1 gene (Gene ID: 23411), NADSYN gene (Gene ID: 55191), and MRPS3 gene (Gene ID: 64969).
# A medium used was an X-VIVO™ 15 serum-free hematopoietic cell medium (manufacturer: Lonza; product No.: 04-418Q) supplemented with 10 vol % of fetal bovine serum (FBS; brand: Gibco) and 1 vol % of penicillin/streptomycin (brand: Gibco), hereinafter referred to as a cell medium. […]
# PBMC cells were collected from each group, and RNA of each group was extracted with an RNA extraction reagent kit (purchased from Geneaid, Taiwan, China, Lot No. FC24015-G). […] Then, by using an ABI StepOnePlus™ Real-Time PCR system (Thermo Fisher Scientific Company, USA), KAPA SYBR FAST (purchased from Sigma Company, USA, No. 38220000000) and primers of Table 1 (SEQ ID NO: 1 to SEQ ID NO: 24), a quantitative real-time reverse transcription polymerase chain reaction was performed on the cDNA of each group to observe the expression levels of antiaging-related genes in PBMC cells. […]
# SIRT1 gene = assay: Antiaging-related gene expression in PBMC cells (qRT-PCR): SIRT1; type: cell-based, human; conditions: 0.25 vol %, 24 hours, control group = 1.00
# Text: as §1
compound,measurement,setting,value
NC(=O)c1ccc[n+]([C@@H]2O[C@H](COP(=O)([O-])O)[C@@H](O)[C@H]2O)c1 [nicotinamide mononucleotide],relative expression of the MRPS5 gene,MRPS5 gene,0.80
same,relative expression of the PARP2 gene,PARP2 gene,0.67
same,relative JC-1 accumulation,[1],42.93%
same,relative ROS production,"[2]; 24 h with 0.25 vol % yeast powder or 10 μL of 200 mM synthetic NMN, then hydrogen peroxide 1 hour, blank group = 100%, H2O2 control group 487.6%",452.5%
same,"decrease in relative ROS production versus H2O2 control (percentage points, blank = 100%)","[2]; hydrogen peroxide, versus control group 487.6%",35.1%
same,relative expression of the CCT5 gene,CCT5 gene,1.55
same,relative expression of the Atg8 gene,Atg8 gene,1.02
same,relative expression of the FOXO gene,FOXO gene,0.79
same,relative expression of the CCT8 gene,CCT8 gene,1.72
same,relative expression of the NADSYN gene,NADSYN gene,5.84
same,relative expression of the Atg1 gene,Atg1 gene,1.25
same,relative expression of the CCT6A gene,CCT6A gene,1.62
same,relative expression of the CCT7 gene,CCT7 gene,1.0672
same,relative expression of the Parkin gene,Parkin gene,1.61
same,relative expression of the SIRT1 gene,SIRT1 gene,4.30
